Results from PMC10221314 (Pharmaceuticals, 2023).
“Also recorded” adds a separate entry of the source.

Key:
HFD mice = test: CDAHFD diet-induced NASH mouse model; type: in vivo
Method: (§1) Cells and liver tissue samples were subjected to RNA extraction and purification, followed by reverse transcription of equal amounts of total RNA into […] using a Transcriptor First Strand cDNA Synthesis Kit (Roche). The relative expression levels of the target gene were determined using TaqMan probe/primers with an ABI Q3 quantitative real-time PCR system, while GAPDH/Gapdh was utilized as an internal control for mRNA expression. The fold change in the expression of the target mRNA was calculated using Equation 2^−ΔΔCt.
A total of 24 C57BL/6N mice were randomly assigned to three groups, including Ctrl., Model-N.S., and Model-10b-100 mg·kg^−1, with eight animals per group. The randomization process was performed using Research Randomizer (RRID: SCR_008563). CDHFD (D09100310) diet was obtained from Research Diets Inc. Sixteen mice were fed the CDHFD diet for 12 weeks to induce NASH, with eight mice receiving a normal diet as a control. At the beginning of the 13th week, the mice in the model group were randomly assigned into two groups and given daily gavages of either normal saline (Model-N.S. group) or 100 mg·kg^−1 of compound 10b suspended in 0.5% sodium carboxymethylcellulose solution (Model-10b groups) for four weeks. Daily bodyweights were recorded, and blood samples were collected from the abdominal aorta following an overnight fast. Afterward, the mice were euthanized using isoflurane. Liver tissue samples were obtained, and some were treated with 4% paraformaldehyde to prepare them for future histological analysis, while others were kept at −80 °C for later examination. Maximum liver lobule was collected for each mouse.
(§2) Kits purchased from Zhongsheng Beikong Biotechnology (Beijing, China) were used to measure the serum concentrations of alanine aminotransferase, aspartate aminotransferase, alkaline phosphatase, γ-glutamyl transpeptidase, total cholesterol, total triglyceride, low-density lipoprotein (LDL), high-density lipoprotein (HDL) cholesterol, lactate dehydrogenase, total bile acid, and total bilirubin. The samples were analyzed on a Hitachi 7100 Analyzer.
(§3) The liver tissue was fixed with formalin, embedded in paraffin, and sectioned. The sections were stained with H&E, Oil Red, Masson’s, and Sirius Red. Liver necrosis, inflammation, bile duct proliferation, hepatic steatosis, and lobule inflammation were evaluated on a scale of 1–5 in a blinded manner using a Leica DM1000 microscope. Five randomly selected manifold area fields of vision were used to quantify the red area in each field of vision (eight in each group), which was counted using ImageJ software. The liver hydroxyproline concentration was determined using kits from Nanjing, China, in accordance with the manufacturer’s instructions.
The mouse liver samples were cut into small pieces of 50 mg size and homogenized in TG, TC, and FC extracts using a high-speed tissue homogenizer. The TG, TC, and FC were then extracted from the tissue, and their contents in the sample were calculated using the protein content for calibration. The determination process utilized the test kit for TC, TG, and FC of high-fat samples from Applygen Technologies Inc. (E1025, E1026, E1027).

[1] = Stability of compound 10b in mouse plasma at 37 °C (HPLC); type: in vitro ADME; set-up: recovery at 6 h / recovery at 48 h: dose or concentration left out as unconfirmed; conditions: for Mass of 10b extracted from mouse plasma: theoretical mass 38.5 μg
Method: 3. Stability test of compound 10b
To preliminarily determine the stability of compound 10b in a biological environment, an in vitro experimental verification method was employed. The trace compound was dissolved in mouse plasma to simulate the biological environment.
Samples were taken at different time intervals at 37 °C, and the content of the compound was determined by HPLC C18 analytical column. The peak area of the absorption at 220 nm was utilized for content calculation.
The standard curve shown in Fig. S1 can be plotted using the peak area and the mass of compound 10b in the corresponding volume of the solution. The relationship is y = 23.253x+ 100.67 (R2 = 0.9994), which meets linearity requirements and can be used for subsequent operations.
Fig. S1. The relationship curve between the absorption peak area and mass of compound 10b at 220 […]
Subsequently, a mouse with a body weight of 20 g and blood volume of 1 mL was calculated based on the subsequent in vivo experiment’s dosage (100 mg·Kg-1).
Assuming 100% absorption, the converted plasma drug concentration is 2 mg·mL -1.
Based on the calculation, 0.5 mg of 10b was added to […] of mouse plasma to prepare a mixed solution. The plasma was then processed after 1h, 6h, 12 h, 24 h, and 48 h, respectively. The compound content in the sample was compared to the initial content with UV absorption and retention time (t = 6.5 min). […]
significant decrease in the content of 10b was observed between 0 to 48 hours, […]

BDL rats = test: Bile duct ligation (BDL) rat model; type: in vivo; conditions: 100 mg·kg-1 oral, 14 days
Method: as §1
The study involved 24 rats that were randomly assigned to 1 of 3 groups, including sham, BDL-N.S., and BDL-10b-100mg·kg^−1, ensuring 8 animals per group using Research Randomizer (RRID: SCR_008563). Of the 24 rats, 16 underwent BDL surgery, wherein the choledochal duct was ligated with surgical sutures after administering isoflurane anesthesia. After 24 h, the BDL rats were randomly divided into […] and received daily gavages of either normal saline (BDL-NS group) or 100 mg·kg^−1 of compound 10b suspended in 0.5% sodium carboxymethylcellulose solution (BDL-10b groups) for 14 days. A healthy control group was established with eight rats undergoing sham surgery. Bodyweights were measured daily, and blood samples were collected from the abdominal aorta after an overnight fast. Euthanasia was performed using isoflurane, following which bile was collected using a syringe, and liver tissue samples were collected. Some of the samples were fixed with 4% paraformaldehyde for subsequent histological examination, while others were stored at −80 °C for further analysis.
as §2, §3

[2] = HFD (CDAHFD) mice, 100 mg·kg-1 gavage daily, four weeks

**Q.** Which “hepatic lobular inflammation (NAS score)” value (HFD mice; CDAHFD mice, 100 mg·kg-1) does the source give for `CC1(C)CCC2(C(=O)O)CCC3(C)C(C(OC(=O)CCC(NC(=O)OC(C)(C)C)C(=O)OC(C)(C)C)CC4C5(C)CCC(O)C(C)(C)C5CCC43C)C2C1` [Compound 10b, 3β-hydroxy-12β-(4′-((tert-butoxycarbonyl)amide)-5′-(tert-butoxy)-L-glutamte)oxy-13H-olean-28-oic acid] here?
**A.** improved

**Q.** What about the “intrahepatic steatosis (NAS score)” value (HFD mice; CDAHFD mice, 100 mg·kg-1) of the same compound?
**A.** improved

**Q.** What about the “liver FC (free cholesterol)” value (HFD mice; CDAHFD mice, 100 mg·kg-1) of the same compound?
**A.** no significant effect

**Q.** What about the “liver TC” value (HFD mice; CDAHFD mice, 100 mg·kg-1) of the same compound?
**A.** no significant effect

**Q.** And the “total triglyceride content in the liver” value (HFD mice; CDAHFD mice, 100 mg·kg-1)?
**A.** reduced

**Q.** And the “Serum ALP” value (HFD mice; [2])?
**A.** 189.71±29.41 U·L-1

**Q.** And the “Serum ALT” value (HFD mice; [2])?
**A.** 325.43±88.40 U·L-1

**Q.** And the “Serum AST” value (HFD mice; [2])?
**A.** 401.86±91.05 U·L-1

**Q.** And the “Serum CHO” value (HFD mice; [2])?
**A.** 2.36 ± 0.44 mmol/L

**Q.** And the “Serum Glu” value (HFD mice; [2])?
**A.** 5.71 ± 1.25 mmol/L

**Q.** What about the “Serum HDL” value (HFD mice; [2]) of the same compound?
**A.** 1.22 ± 0.33 mmol/L

**Q.** What about the “Serum LDH” value (HFD mice; [2]) of the same compound?
**A.** 1326.57±264.54 U·L-1

**Q.** What about the “Serum LDL” value (HFD mice; [2]) of the same compound?
**A.** 0.23 ± 0.04 mmol/L

**Q.** What about the “Serum TBA” value (HFD mice; [2]) of the same compound?
**A.** 23.46 ± 12.81 µmol/L

**Q.** What about the “Serum TBiL” value (HFD mice; [2]) of the same compound?
**A.** 3.81 ± 0.92 µmol/L

**Q.** What about the “mRNA expression of liver fibrosis-related genes in liver” value (HFD mice; NASH mouse model, 100 mg·kg-1) of the same compound?
**A.** inhibit

**Q.** And the recovery at 0 h, 0.0025 mg/mL ([1]; 0 h, read-out: Recovery rate)?
**A.** 68%

**Q.** And the “Mass of 10b extracted from mouse plasma” value ([1]; 0 h)?
**A.** 26.2 µg

**Q.** What about the “content of 10b in mouse plasma (stability)” value ([1]; 0 to 48 h) of the same compound?
**A.** existed stably in mouse plasma; also recorded: remained almost unchanged

**Q.** What about the recovery at 1 h, 0.0025 mg/mL ([1]; 1 h, read-out: Recovery rate) of the same compound?
**A.** 70.9%

**Q.** And the “Mass of 10b extracted from mouse plasma” value ([1]; 1 h)?
**A.** 27.3 µg

**Q.** What about the recovery at 6 h ([1]; 6 h, read-out: Recovery rate) of the same compound?
**A.** 75.8%

**Q.** What about the “Mass of 10b extracted from mouse plasma” value ([1]; 6 h) of the same compound?
**A.** 29.2 µg

**Q.** And the recovery at 12 h, 0.0025 mg/mL ([1]; 12 h, read-out: Recovery rate)?
**A.** 63.4%

**Q.** And the “Mass of 10b extracted from mouse plasma” value ([1]; 12 h)?
**A.** 24.4 µg

**Q.** And the recovery at 24 h, 0.0025 mg/mL ([1]; 24 h, read-out: Recovery rate)?
**A.** 68.5%

**Q.** And the “Mass of 10b extracted from mouse plasma” value ([1]; 24 h)?
**A.** 26.4 µg

**Q.** And the recovery at 48 h ([1]; 48 h, read-out: Recovery rate)?
**A.** 76.6%

**Q.** And the “Mass of 10b extracted from mouse plasma” value ([1]; 48 h)?
**A.** 29.5 µg

**Q.** What about the “Bile TBA” value (BDL rats) of the same compound?
**A.** 249.4 ± 103.67 µmol/L

**Q.** What about the “Bile TBiL” value (BDL rats) of the same compound?
**A.** 5.8 ± 2.46 µmol/L

**Q.** And the “Serum ALP” value (BDL rats)?
**A.** 391.33±52.42 U·L-1

**Q.** What about the “Serum HDL” value (BDL rats) of the same compound?
**A.** 0.29 ± 0.06 mmol/L

**Q.** What about the “Serum LDL” value (BDL rats) of the same compound?
**A.** 1.06 ± 0.22 mmol/L

**Q.** And the “Serum γ-GT” value (BDL rats)?
**A.** 37.5±6.74 U·L-1

**Q.** What about the “Urine TBA” value (BDL rats) of the same compound?
**A.** 15.38 ± 5.76 µmol/L

**Q.** And the “Urine TBiL” value (BDL rats)?
**A.** 5.33 ± 1.50 µmol/L

**Q.** What about the “expression of fibrogenic genes Col1a1, Acta2, Tgfb1, Mmp2, Timp1, Itgav, Ctgf in rat liver (qRT-PCR)” value (BDL rats) of the same compound?
**A.** reduced

**Q.** What about the “liver collagen accumulation (Sirius red staining)” value (BDL rats) of the same compound?
**A.** significantly attenuated

**Q.** And the “pathological impairments (bile duct hyperplasia, parenchymal necrosis, inflammation; H&E)” value (BDL rats)?
**A.** substantially reduced

**Q.** What about the “liver necrosis scores (blinded assessment)” value (BDL rats; vs BDL rats) of the same compound?
**A.** significantly lower
